According to patent US20100099631A1, “Novel Use” (priority 2006, published 2010):
Read-outs that look alike come from different tables or passages of the source.

Key:
muscle glycogen = assay: Muscle glycogen content and resynthesis rate (vastus lateralis biopsies) after exhaustive exercise; assay type: in vivo, human (trained cyclists); settings: for Muscle Glycogen Resynthesis Rate: caffeine with carbohydrate
Experimental: (§1) Eight trained cyclists participated in a study which was approved by the Ethics Committee of RMIT University, Melbourne, Australia. Each subject participated in two experimental trials separated by 7 to 10 days. Trials were randomised and double-blind. Approximately 12 to 14 hours before each trial, the subjects reported to the laboratory to undertake 90 minutes of intense cycling (repeated sprints) to deplete muscle glycogen stores. The subjects were then fed a standardised low carbohydrate meal (60% of energy from fat) and had to refrain from solid feeding for the following 12 to 14 hours. During this period water was allowed ad libitum.
(§2) The next morning, subjects reported to the laboratory between 0600 and 0700 hours. After a rest period of 10 minutes, an indwelling canula was inserted into the right forearm and a resting blood sample taken. Local anaesthesia was applied to the subjects skin to enable subcutaneous tissue and fascia of the vastus lateralis of the subjects right leg in preparation for muscle biopsies.
(§3) After biopsy preparation, a bout of exhaustive exercise (submaximal continuous cycling) was undertaken to further deplete muscle glycogen stores. The exhaustive cycling protocol has been previously described by McInerney et al. (McInerney P., Lessard S. J., Burke L. M., Coffey V. G., Lo Giudice S. L., Southgate R. J., Hawley J. A. Failure to repeatedly supercompensate muscle glycogen stores in highly trained men. Med. Sci. Sports Excer. 37:404-411, 2005). During exercise the subjects were allowed to drink water ad libitum and were fan-cooled.
(§4) Laboratory conditions were standardised for the tests with 50% relative humidity and a temperature of 20° C. Immediately on completion of the exercise and while subjects remained seated on the cycle ergometer, a muscle biopsy was taken and frozen within 15 seconds of the last muscle contraction. After the biopsy, subjects dismounted the ergometer and rested in a supine position. During one trial, subjects were fed 1 g/kg body mass (BM) of carbohydrate immediately upon cessation of exercise and thereafter 1 g/kg BM of carbohydrate after 60, 120 and 180 minutes of recovery (a total of 4 g/kg BM carbohydrate). In the second trial, subjects followed the same carbohydrate ingestion regimen but in addition consumed 4 mg/kg BM of caffeine immediately upon cessation of the exercise and then after 120 minutes during recovery. Blood samples were taken at regular intervals throughout the recovery period (0, 30, 60, 90, 120, 180 and 240 minutes). Muscle biopsies were taken immediately after exercise and after 1 and 4 hr of recovery. All muscle samples were stored at −80° C. until analysis.
(§5) Blood samples were analysed for plasma glucose and insulin concentrations at rest, and at regular intervals during recovery. The protocols for blood analysis are routine and have been described previously ((McInerney P., Lessard S. J., Burke L. M., Coffey V. G., Lo Giudice S. L., Southgate R. J., Hawley J. A. Failure to repeatedly supercompensate muscle glycogen stores in highly trained men. Med. Sci. Sports Excer. 37:404-411, 2005). Plasma caffeine levels were analysed by high-performance liquid chromatography. Muscle samples were analysed for glycogen content immediately after exercise and after 1 and 4 hours of recovery.

[1] = Plasma caffeine concentration by HPLC during recovery after exercise; assay type: in vivo, human (trained cyclists); settings: for concentration at 1 h / concentration at 4 h: 4 mg/kg BM
Experimental: as §1, §4, §5

muscle glucose oxidation = settings: co-ingestion of caffeine and glucose during exercise; cited from earlier work
[2] = Plasma glucose and insulin concentrations during 4 hr recovery after glycogen-depleting exercise; assay type: in vivo, human (trained cyclists)
Experimental: as §1, §2, §3, §4, §5

[3] = 0 hr, immediately post exercise
[4] = 1 hr recovery, caffeine 4 mg/kg BM at 0 and 120 min with carbohydrate 1 g/kg BM hourly
[5] = 4 hr recovery, caffeine 4 mg/kg BM at 0 and 120 min with carbohydrate 1 g/kg BM hourly
[6] = rest, before exercise and ingestion
[7] = 0.5 hr recovery, caffeine 4 mg/kg BM at 0 and 120 min with carbohydrate 1 g/kg BM hourly
[8] = 1.5 hr recovery, caffeine 4 mg/kg BM at 0 and 120 min with carbohydrate 1 g/kg BM hourly
[9] = 2 hr recovery, caffeine 4 mg/kg BM at 0 and 120 min with carbohydrate 1 g/kg BM hourly
[10] = 3 hr recovery, caffeine 4 mg/kg BM at 0 and 120 min with carbohydrate 1 g/kg BM hourly

Cn1c(=O)c2c(ncn2C)n(C)c1=O [Caffeine, caffeine]
Muscle Glycogen Resynthesis Rate (muscle glycogen; 0-1 hr of recovery): 63.52 mm/Kg · hr · dm
Muscle Glycogen Content (muscle glycogen; [3]): 76 mmol/Kg · dm
Muscle Glycogen Content (muscle glycogen; [4]): 149 mmol/Kg · dm
Muscle Glycogen Resynthesis Rate (muscle glycogen; 1 hr-4 hr of recovery): 57.69 mm/Kg · hr · dm
Muscle Glycogen Content (muscle glycogen; [5]): 313 mmol/Kg · dm
Muscle Glycogen Content (muscle glycogen; after 1 hr of recovery): 149±18 mmol/kg d.w
increase of muscle glycogen content (muscle glycogen; after 1 hr of recovery, vs exhaustion): ~80%
muscle glycogen levels (muscle glycogen; after 4 hr of recovery, co-ingestion of caffeine with CHO, P<0.001 vs placebo): 313±26 mmol/kg d.w.
muscle glycogen levels at exhaustion (muscle glycogen; at exhaustion, before ingestion): 76 ± 9 mmol/kg
rates of muscle glycogen synthesis, higher than PL (carbohydrate alone) (muscle glycogen; from 1-4 hr of recovery): 66%
rates of muscle glycogen synthesis (muscle glycogen; from 1-4 hr of recovery, P<0.05 vs PL): 57.7 ± 7.6 mmol/kg/h
average rate of resynthesis, higher than PL (carbohydrate alone) (muscle glycogen; over the 4 hours of recovery): 66%
average rate of resynthesis (muscle glycogen; over the 4 hours of recovery, P<0.05 vs PL): 57.71 ± 7.6 mmol/kg/h
concentration at 0 h ([1]; human, plasma, oral, 0 hr, immediately post exercise): 0 nM
concentration at 1 h ([1]; human, plasma, oral, 1 hr recovery, oral caffeine 4 mg/kg BM at 0 and 120 min with carbohydrate, read-out: Plasma caffeine concentration): 31.5 µM
concentration at 4 h ([1]; human, plasma, oral, 4 hr recovery, oral caffeine 4 mg/kg BM at 0 and 120 min with carbohydrate, read-out: Plasma caffeine concentration): 77.9 µM
concentration at 1 h ([1]; human, plasma, oral, after 1 hr, carbohydrate and caffeine, read-out: plasma caffeine levels): 30 µM
concentration at 4 h ([1]; human, plasma, oral, after 4 hr, carbohydrate and caffeine, read-out: plasma caffeine levels): ~80 µM
Plasma caffeine concentration [1, 6]: 0.00 µM
increase in muscle glucose oxidation (muscle glucose oxidation): 26%
Plasma Glucose [2, 3]: 3.62 mmol/L
Plasma Insulin [2, 3]: 4.17 uU/mL
Plasma Glucose [2, 7]: 6.06 mmol/L
Plasma Insulin [2, 7]: 30.17 uU/mL
Plasma Glucose [2, 4]: 6.29 mmol/L
Plasma Insulin [2, 4]: 29.23 uU/mL
Plasma Glucose [2, 8]: 5.95 mmol/L
Plasma Insulin [2, 8]: 46.33 uU/mL
Plasma Glucose [2, 9]: 5.58 mmol/L
Plasma Insulin [2, 9]: 46.02 uU/mL
Plasma Glucose [2, 10]: 5.24 mmol/L
Plasma Insulin [2, 10]: 68.53 uU/mL
Plasma Glucose [2, 5]: 5.23 mmol/L
Plasma Insulin [2, 5]: 46.91 uU/mL
area under the insulin versus time curve compared to carbohydrate alone ([2]; caffeine with carbohydrate, 4 hr recovery, P<0.05): significantly greater
Plasma Glucose [2, 6]: 4.04 mmol/L
Plasma Insulin [2, 6]: 9.36 uU/mL
